# Reference: ChEMBL document CHEMBL1138400, “Discovery of gamma-secretase inhibitors efficacious in a transgenic animal model of Alzheimer's disease” (Bioorg Med Chem Lett, 2007)
# pIC50: −log10 of the molar value.
# Target: Gamma-secretase
# Assay: Inhibition of gamma-secretase mediated amyloid beta-40 production in HEK293 cell membranes
# Format: cell-based, Homo sapiens
# Settings: not given
row,pIC50,Structure (SMILES)
1,6.96,C[C@H]1CN(CC2CC2)CCN1C(=O)OCC1CCCC(c2cc(F)cc(F)c2)N1S(=O)(=O)c1ccc(Cl)cc1 (mixture of isomers)
2,8.44,O=C(OC1(C2CCCC(c3cccc(F)c3)N2S(=O)(=O)c2ccc(Cl)cc2)CC1)N1C2CCC1CC(N1CC[C@@H](O)C1)C2 (mixture of isomers)
3,9.05,C[C@H]1CN(C(C)(CO)CO)CCN1C(=O)OC1(C2CCCC(c3cccc(F)c3)N2S(=O)(=O)c2ccc(Cl)cc2)CC1 (mixture of isomers)
4,7.77,C[C@H]1CNCCN1C(=O)OC1(C2CCCC(c3cc(F)cc(F)c3)N2S(=O)(=O)c2ccc(Cl)cc2)CC1 (mixture of isomers)
5,8.68,C[C@H]1CN(CCO)CCN1C(=O)OC1(C2CCCC(c3cccc(F)c3)N2S(=O)(=O)c2ccc(Cl)cc2)CC1 (mixture of isomers)
6,8.21,C[C@H]1CN(CC2CC2)CCN1C(=O)OC1(C2CCCC(c3cc(F)cc(F)c3)N2S(=O)(=O)c2ccc(Cl)cc2)CC1 (mixture of isomers)
7,8.96,CCN1CCN(C(=O)OC2(C3CCCC(c4cc(F)cc(F)c4)N3S(=O)(=O)c3ccc(Cl)cc3)CC2)CC1 (racemic)
8,7.77,O=C(OC1(C2CCCC(c3cc(F)cc(F)c3)N2S(=O)(=O)c2cc(F)cc(F)c2)CC1)N1CCN(CCO)CC1 (racemic)
9,8.36,CC(C)(OC(=O)N1CCC(N2CCCCC2)CC1)C1CCCC(c2cccc(F)c2)N1S(=O)(=O)c1ccc(Cl)cc1 (racemic)
10,7.95,O=C(OCC1CCCC(c2cccc(F)c2)N1S(=O)(=O)c1ccc(Cl)cc1)N1CCC(N2CCCCC2)CC1 (racemic)
11,7.57,CN1CN(C)C2(CCN(C(=O)OCC3CCCC(c4cc(F)cc(F)c4)N3S(=O)(=O)c3ccc(Cl)cc3)CC2)C1=O (racemic)
12,8.07,O=C(OC1([C@H]2CCC[C@@H](c3cc(F)cc(F)c3)N2S(=O)(=O)c2ccc(Cl)cc2)CC1)N1CCC2(CC1)C(=O)NCN2c1ccccc1 (racemic)
13,7.44,O=C(OCC1CCCC(c2cc(F)cc(F)c2)N1S(=O)(=O)c1ccc(Cl)cc1)N1CCN(C2CCCCC2)CC1 (racemic)
14,7.13,O=C(OCC1CCCC(c2cc(F)cc(F)c2)N1S(=O)(=O)c1ccc(Cl)cc1)N1CCNCC1 (racemic)
15,7.81,CN(c1ccccc1)C1CCN(C(=O)OC2(C3CCCC(c4cccc(F)c4)N3S(=O)(=O)c3ccc(Cl)cc3)CC2)CC1 (racemic)
16,8.64,O=C(OC1(C2CCCC(c3cccc(F)c3)N2S(=O)(=O)c2ccc(Cl)cc2)CC1)N1CCC(N2CCC(F)(F)CC2)CC1 (racemic)
17,8.35,CCCC1(O)CCN(C(=O)OC2(C3CCCC(c4cccc(F)c4)N3S(=O)(=O)c3ccc(Cl)cc3)CC2)CC1 (racemic)

row,pIC50,Structure (SMILES)
1,8.28,CC1CN(C(=O)OC2(C3CCCC(c4cccc(F)c4)N3S(=O)(=O)c3ccc(Cl)cc3)CC2)CC(C)N1 (racemic)
2,8.72,O=C(OC1(C2CCCC(c3cccc(F)c3)N2S(=O)(=O)c2ccc(Cl)cc2)CC1)N1CCN(CCO)CC1 (racemic)
3,9.52,O=C(OC1(C2CCCC(c3cc(F)cc(F)c3)N2S(=O)(=O)c2ccc(Cl)cc2)CC1)N1CCC(N2CCCCC2)CC1 (racemic)
4,8.57,CC(C)N1CCN(C(=O)OC2(C3CCCC(c4cc(F)cc(F)c4)N3S(=O)(=O)c3ccc(Cl)cc3)CC2)CC1 (racemic)
5,6.78,CN(c1ccccc1)C1CCN(C(=O)OCC2CCCC(c3cc(F)cc(F)c3)N2S(=O)(=O)c2ccc(Cl)cc2)CC1 (racemic)
6,8.59,O=C(OC1(C2CCCC(c3cccc(F)c3)N2S(=O)(=O)c2ccc(Cl)cc2)CC1)N1C2CCC1CC(N1CCCCC1)C2 (racemic)
7,8.28,CCC(CO)NC1CC2CCC(C1)N2C(=O)OC1(C2CCCC(c3cccc(F)c3)N2S(=O)(=O)c2ccc(Cl)cc2)CC1 (racemic)
8,8.46,O=C(OC1(C2CCCC(c3cc(F)cc(F)c3)N2S(=O)(=O)c2cc(F)cc(F)c2)CC1)N1CCC(N2CCCCC2)CC1 (racemic)
9,8.43,O=C(OC1(C2CCCC(c3cccc(F)c3)N2S(=O)(=O)c2ccc(Cl)cc2)CC1)N1CCC(O)(C2CC2)CC1 (racemic)
10,6.82,O=C(OC[C@H]1CCC[C@@H](c2cc(F)cc(F)c2)N1S(=O)(=O)c1ccc(Cl)cc1)N1CCC2(CC1)C(=O)NCN2c1ccccc1 (racemic)
11,8.28,CN1CN(C)C2(CCN(C(=O)OC3(C4CCCC(c5cc(F)cc(F)c5)N4S(=O)(=O)c4ccc(Cl)cc4)CC3)CC2)C1=O (racemic)
12,8.38,O=C(OC1(C2CCCC(c3cc(F)cc(F)c3)N2S(=O)(=O)c2ccc(Cl)cc2)CC1)N1CCN(C2CCCCC2)CC1 (racemic)
13,8.10,O=C(OC1(C2CCCC(c3cc(F)cc(F)c3)N2S(=O)(=O)c2ccc(Cl)cc2)CC1)N1CCNCC1 (racemic; form 1)
14,9.15,O=C(OC1(C2CCCC(c3cccc(F)c3)N2S(=O)(=O)c2ccc(Cl)cc2)CC1)N1CCC(N2CCCCC2)CC1 (racemic; form 1)
15,8.10,Cl.O=C(OC1(C2CCCC(c3cc(F)cc(F)c3)N2S(=O)(=O)c2ccc(Cl)cc2)CC1)N1CCNCC1 (racemic; form 2)
16,9.10,Cl.O=C(OC1(C2CCCC(c3cccc(F)c3)N2S(=O)(=O)c2ccc(Cl)cc2)CC1)N1CCC(N2CCCCC2)CC1 (racemic; form 2)

# Target: Gamma-secretase
# Assay: Inhibition of gamma-secretase mediated amyloid beta-40 production in HEK293 cells by whole cell-based assay
# Design: species or system Homo sapiens
# Settings: not given
row,pIC50,Structure (SMILES)
1,7.70,O=C(OC1(C2CCCC(c3cccc(F)c3)N2S(=O)(=O)c2ccc(Cl)cc2)CC1)N1C2CCC1CC(N1CC[C@@H](O)C1)C2 (mixture of isomers)
2,8.29,C[C@H]1CN(C(C)(CO)CO)CCN1C(=O)OC1(C2CCCC(c3cccc(F)c3)N2S(=O)(=O)c2ccc(Cl)cc2)CC1 (mixture of isomers)
3,6.81,C[C@H]1CNCCN1C(=O)OC1(C2CCCC(c3cc(F)cc(F)c3)N2S(=O)(=O)c2ccc(Cl)cc2)CC1 (mixture of isomers)
4,7.54,C[C@H]1CN(CCO)CCN1C(=O)OC1(C2CCCC(c3cccc(F)c3)N2S(=O)(=O)c2ccc(Cl)cc2)CC1 (mixture of isomers)
5,8.12,CCN1CCN(C(=O)OC2(C3CCCC(c4cc(F)cc(F)c4)N3S(=O)(=O)c3ccc(Cl)cc3)CC2)CC1 (racemic)
6,7.61,O=C(OC1(C2CCCC(c3cc(F)cc(F)c3)N2S(=O)(=O)c2cc(F)cc(F)c2)CC1)N1CCN(CCO)CC1 (racemic)
7,8.26,O=C(OC1(C2CCCC(c3cccc(F)c3)N2S(=O)(=O)c2ccc(Cl)cc2)CC1)N1CCC(N2CCC(F)(F)CC2)CC1 (racemic)
8,7.97,CCCC1(O)CCN(C(=O)OC2(C3CCCC(c4cccc(F)c4)N3S(=O)(=O)c3ccc(Cl)cc3)CC2)CC1 (racemic)
9,6.92,CC1CN(C(=O)OC2(C3CCCC(c4cccc(F)c4)N3S(=O)(=O)c3ccc(Cl)cc3)CC2)CC(C)N1 (racemic)
10,8.15,O=C(OC1(C2CCCC(c3cccc(F)c3)N2S(=O)(=O)c2ccc(Cl)cc2)CC1)N1CCN(CCO)CC1 (racemic)
11,8.24,O=C(OC1(C2CCCC(c3cc(F)cc(F)c3)N2S(=O)(=O)c2ccc(Cl)cc2)CC1)N1CCC(N2CCCCC2)CC1 (racemic)
12,7.77,CC(C)N1CCN(C(=O)OC2(C3CCCC(c4cc(F)cc(F)c4)N3S(=O)(=O)c3ccc(Cl)cc3)CC2)CC1 (racemic)
13,8.01,O=C(OC1(C2CCCC(c3cccc(F)c3)N2S(=O)(=O)c2ccc(Cl)cc2)CC1)N1C2CCC1CC(N1CCCCC1)C2 (racemic)
14,7.67,CCC(CO)NC1CC2CCC(C1)N2C(=O)OC1(C2CCCC(c3cccc(F)c3)N2S(=O)(=O)c2ccc(Cl)cc2)CC1 (racemic)
15,7.89,O=C(OC1(C2CCCC(c3cc(F)cc(F)c3)N2S(=O)(=O)c2cc(F)cc(F)c2)CC1)N1CCC(N2CCCCC2)CC1 (racemic)
16,8.11,O=C(OC1(C2CCCC(c3cccc(F)c3)N2S(=O)(=O)c2ccc(Cl)cc2)CC1)N1CCC(O)(C2CC2)CC1 (racemic)
17,6.97,Cl.O=C(OC1(C2CCCC(c3cc(F)cc(F)c3)N2S(=O)(=O)c2ccc(Cl)cc2)CC1)N1CCNCC1 (racemic; form 2)
18,8.30,Cl.O=C(OC1(C2CCCC(c3cccc(F)c3)N2S(=O)(=O)c2ccc(Cl)cc2)CC1)N1CCC(N2CCCCC2)CC1 (racemic; form 2)

# Test system: not listed separately
# Assay: in vivo
# Settings: rat, plasma, po, 10 mg/kg
# Description: AUC (0 to 6h) in rat at 10 mg/kg, po
row,AUC(0-t) at 6 h [ng·h/mL],Structure (SMILES)
1,2090,O=C(OC1(C2CCCC(c3cccc(F)c3)N2S(=O)(=O)c2ccc(Cl)cc2)CC1)N1C2CCC1CC(N1CC[C@@H](O)C1)C2 (mixture of isomers)
2,1770,C[C@H]1CN(C(C)(CO)CO)CCN1C(=O)OC1(C2CCCC(c3cccc(F)c3)N2S(=O)(=O)c2ccc(Cl)cc2)CC1 (mixture of isomers)
3,7210,C[C@H]1CN(CCO)CCN1C(=O)OC1(C2CCCC(c3cccc(F)c3)N2S(=O)(=O)c2ccc(Cl)cc2)CC1 (mixture of isomers)
4,1400,CCN1CCN(C(=O)OC2(C3CCCC(c4cc(F)cc(F)c4)N3S(=O)(=O)c3ccc(Cl)cc3)CC2)CC1 (racemic)
5,23100,O=C(OC1(C2CCCC(c3cc(F)cc(F)c3)N2S(=O)(=O)c2cc(F)cc(F)c2)CC1)N1CCN(CCO)CC1 (racemic)
6,2430,CC(C)(OC(=O)N1CCC(N2CCCCC2)CC1)C1CCCC(c2cccc(F)c2)N1S(=O)(=O)c1ccc(Cl)cc1 (racemic)
7,1380,O=C(OCC1CCCC(c2cccc(F)c2)N1S(=O)(=O)c1ccc(Cl)cc1)N1CCC(N2CCCCC2)CC1 (racemic)
8,1670,O=C(OC1(C2CCCC(c3cccc(F)c3)N2S(=O)(=O)c2ccc(Cl)cc2)CC1)N1CCC(N2CCC(F)(F)CC2)CC1 (racemic)
9,1810,CC1CN(C(=O)OC2(C3CCCC(c4cccc(F)c4)N3S(=O)(=O)c3ccc(Cl)cc3)CC2)CC(C)N1 (racemic)
10,2090,O=C(OC1(C2CCCC(c3cccc(F)c3)N2S(=O)(=O)c2ccc(Cl)cc2)CC1)N1CCN(CCO)CC1 (racemic)
11,1080,O=C(OC1(C2CCCC(c3cc(F)cc(F)c3)N2S(=O)(=O)c2ccc(Cl)cc2)CC1)N1CCC(N2CCCCC2)CC1 (racemic)
12,783,CC(C)N1CCN(C(=O)OC2(C3CCCC(c4cc(F)cc(F)c4)N3S(=O)(=O)c3ccc(Cl)cc3)CC2)CC1 (racemic)
13,2880,O=C(OC1(C2CCCC(c3cccc(F)c3)N2S(=O)(=O)c2ccc(Cl)cc2)CC1)N1C2CCC1CC(N1CCCCC1)C2 (racemic)
14,3070,CCC(CO)NC1CC2CCC(C1)N2C(=O)OC1(C2CCCC(c3cccc(F)c3)N2S(=O)(=O)c2ccc(Cl)cc2)CC1 (racemic)
15,5050,O=C(OC1(C2CCCC(c3cc(F)cc(F)c3)N2S(=O)(=O)c2cc(F)cc(F)c2)CC1)N1CCC(N2CCCCC2)CC1 (racemic)
16,6210,Cl.O=C(OC1(C2CCCC(c3cc(F)cc(F)c3)N2S(=O)(=O)c2ccc(Cl)cc2)CC1)N1CCNCC1 (racemic; form 2)
17,802,Cl.O=C(OC1(C2CCCC(c3cccc(F)c3)N2S(=O)(=O)c2ccc(Cl)cc2)CC1)N1CCC(N2CCCCC2)CC1 (racemic; form 2)
